Results: patent US9376387B2 (priority 2013, dated 2016)
Where two headings read alike, the source gives them in different places.

Assays:
EqBuChE = EqBuChE (Equus caballus, UniProt P81908); assay: biochemical
[1] = target: T1, hAChE (human erythrocyte membranes as a AChE source) (Homo sapiens, UniProt P22303); assay: acetylcholinesterase (AChE) activity, modified Ellman method; type: biochemical
T1 construct: human erythrocyte membranes as a AChE source; from tissue; host or cells: human erythrocyte membranes
T1 sequence (P22303 32-617 isoform P22303-2 limits assumed): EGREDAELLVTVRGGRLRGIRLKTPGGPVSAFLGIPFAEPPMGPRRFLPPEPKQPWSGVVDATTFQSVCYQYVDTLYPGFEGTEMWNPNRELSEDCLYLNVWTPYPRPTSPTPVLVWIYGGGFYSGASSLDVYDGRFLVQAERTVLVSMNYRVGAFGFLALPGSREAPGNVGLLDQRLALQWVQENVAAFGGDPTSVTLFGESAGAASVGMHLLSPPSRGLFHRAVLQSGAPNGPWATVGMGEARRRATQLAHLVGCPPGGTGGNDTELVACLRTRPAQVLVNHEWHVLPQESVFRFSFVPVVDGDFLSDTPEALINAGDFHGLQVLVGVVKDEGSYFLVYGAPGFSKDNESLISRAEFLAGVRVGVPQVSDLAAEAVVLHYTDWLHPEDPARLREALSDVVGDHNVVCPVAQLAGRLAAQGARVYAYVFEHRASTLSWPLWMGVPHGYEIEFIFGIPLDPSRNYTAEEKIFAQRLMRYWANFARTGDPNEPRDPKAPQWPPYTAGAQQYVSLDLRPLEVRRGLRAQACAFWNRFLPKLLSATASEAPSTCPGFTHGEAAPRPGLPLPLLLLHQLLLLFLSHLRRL

[2] = hAChE IC50, modified Ellman method, acetylthiocholine iodide substrate, pH=7.4
[3] = IC50, enzyme not named in the examples, AChE per the Table

Chain of EqBuChE (P81908 whole entry): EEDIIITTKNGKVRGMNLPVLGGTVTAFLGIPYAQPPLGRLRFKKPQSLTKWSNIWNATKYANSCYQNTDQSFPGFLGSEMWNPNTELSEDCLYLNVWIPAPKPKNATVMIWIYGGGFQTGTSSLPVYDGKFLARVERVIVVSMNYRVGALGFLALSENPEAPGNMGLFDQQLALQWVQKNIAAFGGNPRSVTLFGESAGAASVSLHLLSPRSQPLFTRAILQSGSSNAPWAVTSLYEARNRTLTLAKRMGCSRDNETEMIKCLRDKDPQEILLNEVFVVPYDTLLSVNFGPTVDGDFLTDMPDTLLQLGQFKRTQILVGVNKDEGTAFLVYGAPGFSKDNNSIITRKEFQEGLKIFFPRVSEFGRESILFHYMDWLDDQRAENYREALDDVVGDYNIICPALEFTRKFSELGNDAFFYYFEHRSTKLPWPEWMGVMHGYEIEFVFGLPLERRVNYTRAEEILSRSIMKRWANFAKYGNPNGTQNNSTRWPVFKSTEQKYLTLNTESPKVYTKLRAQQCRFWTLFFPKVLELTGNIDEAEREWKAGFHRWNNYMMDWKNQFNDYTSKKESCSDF

Structure (SMILES)	IC50 (EqBuChE; EqBuChE IC50) [nM]	further results
COc1ccc2c(c1)CCC(Cc1cc[n+](Cc3ccccc3C)cc1C(C)=O)C2=O (stereo not shown) [Compound 121, 2-[[3-acetyl-1-(o-tolylmethyl)pyridin-1-ium-4-yl]methyl]-6-methoxy-tetralin-1-one bromide]	433	IC50 [1, 2]: 10 nM
COc1cc2c(cc1OC)C(=O)C(Cc1cc[n+](Cc3ccccc3)cc1Br)C2 (stereo not shown) [Compound 145, 2-[(1-benzyl-3-bromo-pyridin-1-ium-4-yl)methyl]-5,6-dimethoxy-indan-1-one bromide]		IC50 (EqBuChE; read-out: EqBuChE IC50): 1790 nM; IC50 ([1]; modified Ellman method, acetylthiocholine iodide substrate, pH=7.4, read-out: hAChE IC50): 0.36 nM
COc1ccc2c(c1)CCC(Cc1cc[n+](Cc3cccc(F)c3)cc1C(C)=O)C2=O (stereo not shown) [Compound 128, 2-[[3-acetyl-1-[(3-fluorophenyl)methyl]pyridin-1-ium-4-yl]methyl]-6-methoxy-tetralin-1-one bromide]	412	IC50 [1, 2]: 55 nM
CC(=O)C1=CN(Cc2ccccc2C)C=CC1CC1Cc2cc3c(cc2C1=O)OCO3 (stereo not shown) [Compound 165, 6-[[3-acetyl-1-(o-tolylmethyl)-4H-pyridin-4-yl]methyl]-5,6-dihydrocyclopenta[f][1,3]benzodioxol-7-one]	4610	
COc1ccc2c(c1)CCC(CC1C=CN(Cc3ccccc3C)C=C1C(C)=O)C2=O (single isomer, unassigned) [Compound 160-C, 2-[[3-acetyl-1-(o-tolylmethyl)-4H-pyridin-4-yl]methyl]-6-methoxy-tetralin-1-one]	4700	
COc1cc2c(cc1OC)C(=O)C(Cc1cc[n+](Cc3ccccc3)cc1C(C)=O)CC2 (stereo not shown) [Compound 132, 2-[(3-actyl-1-benzyl-pyridin-1-ium-4-yl)methyl]-6,7-dimethoxy-tetralin-1-one bromide]		IC50 [1, 2]: 24.2 nM
COc1cc2c(cc1OC)C(=O)/C(=C/c1cc[n+](Cc3ccccc3)cc1C(C)=O)C2 [Compound 149, (2E)-2-[(3-actyl-1-benzyl-pyridin-1-ium-4-yl)methylene]-5,6-dimethoxy-indan-1-one bromide]		IC50 [1, 2]: 20.1 nM
COc1ccc2c(c1)CCC(CC1C=CN(Cc3cccc(C)c3)C=C1C(C)=O)C2=O (stereo not shown) [Compound 61, 2-[[3-acetyl-1-(m-tolylmethyl)-4H-pyridin-4-yl]methyl]-6-methoxy-tetralin-1-one]	4020	
COc1cc2c(cc1OC)C(=O)C(CC1C=CN(Cc3ccccc3)C=C1C#N)C2 (stereo not shown) [Compound 27, 1-Benzyl-4-(5,6-dimethoxy-1-oxo-2,3-dihydro-1H-inden-2-yl)methyl-1,4-dihydropyridine-3-carbonitrile]		IC50 [1, 3]: 175 nM
COc1ccc2c(c1)CCC(CC1C=CN(Cc3ccccc3C)C=C1C(C)=O)C2=O (racemic) [Compound 160, 2-[[3-acetyl-1-(o-tolylmethyl)-4H-pyridin-4-yl]methyl]-6-methoxy-tetralin-1-one]	8270	
COc1cc2c(cc1OC)C(=O)C(CC1C=CN(Cc3ccccc3C)C=C1C(C)=O)C2 (stereo not shown) [Compound 169, 2-[[3-acetyl-1-(o-tolylmethyl)-4H-pyridin-4-yl]methyl]-5,6-dimethoxy-indan-1-one]		IC50 [1, 2]: 428 nM
COc1cc2c(cc1OC)C(=O)C(Cc1cc[n+](Cc3ccccc3)cc1C#N)C2 (stereo not shown) [Compound 26, 1-Benzyl-3-cyano-4-(5,6-dimethoxy-1-oxo-2,3-dihydro-1H-inden-2-yl)methylpyridinium iodide]		IC50 [1, 3]: 11.2 nM; IC50 [1, 2]: 11.3 nM
COc1ccc2c(c1)CCC(CC1C=CN(Cc3ccccc3C(F)(F)F)C=C1C(C)=O)C2=O (stereo not shown) [Compound 67, 2-[[3-acetyl-1-[[2-(trifluoromethyl)phenyl]methyl]-4H-pyridin-4-yl]methyl]-6-methoxy-tetralin-1-one]	3050	
COc1ccc2c(c1)CCC(CC1C=CN(Cc3ccccc3F)C=C1C(C)=O)C2=O (stereo not shown) [Compound 55, 2-[[3-acetyl-1-[(2-fluorophenyl)methyl]-4H-pyridin-4-yl]methyl]-6-methoxy-tetralin-1-one]	6010	
CC(=O)c1c[n+](Cc2ccccc2C)ccc1CC1Cc2cc(Cl)ccc2C1=O (stereo not shown) [Compound 136, 2-[[3-acetyl-1-(o-tolylmethyl)pyridin-1-ium-4-yl]methyl]-5-chloro-indan-1-one bromide]		IC50 [1, 2]: 262 nM
COc1ccc2c(c1)CCC(CC1C=CN(Cc3ccccc3C)C=C1C(C)=O)C2=O (single isomer, unassigned) [Compound 160-B, 2-[[3-acetyl-1-(o-tolylmethyl)-4H-pyridin-4-yl]methyl]-6-methoxy-tetralin-1-one]	5640	
COc1ccc(C(=O)N(CCC2C=CN(Cc3ccccc3)C=C2C(C)=O)c2ccccc2)cc1OC (stereo not shown) [Compound 32, N-[2-(3-acetyl-1-benzyl-4H-pyridin-4-yl)ethyl]-3,4-dimethoxy-N-phenyl-benzamide]	6210	
COc1ccc2c(c1)CC(CC1C=CN(Cc3ccccc3C)C=C1C(C)=O)C2=O (stereo not shown) [Compound 164, 2-[[3-acetyl-1-(o-tolylmethyl)-4H-pyridin-4-yl]methyl]-5-methoxy-indan-1-one]	5440	
COc1cc2c(cc1OC)C(=O)C(Cc1cc[n+](Cc3ccccc3)cc1)C2 (stereo not shown) [Compound 23, 1-Benzyl-4-((5,6-dimethoxy-1-oxo-2,3-dihydro-1H-inden-2-yl)methyl)pyridinium iodide]		IC50 [1, 3]: 36.8 nM
COc1cc2c(cc1OC)C(=O)C(CC1C=CN(Cc3ccccc3)C=C1C(C)=O)C2 (stereo not shown) [Compound 34, 1-Benzyl-4-(5,6-dimethoxy-1-oxo-2,3-dihydro-1H-inden-2-yl)methyl-1,4-dihydropyridine-3-acetyl]		IC50 [1, 3]: 528 nM
COc1ccc2c(c1)CCC(CC1C=CN(Cc3ccccc3Cl)C=C1C(C)=O)C2=O (stereo not shown) [Compound 157, 2-[[3-acetyl-1-[(2-chlorphenyl)methyl]-4H-pyridin-4-yl]methyl]-6-methoxy-tetralin-1-one]	5780	
CC(=O)C1=CN(Cc2ccccc2C)C=CC1CC1Cc2cc(C)ccc2C1=O (stereo not shown) [Compound 163, 2-[[3-acetyl-1-(o-tolylmethyl)-4H-pyridin-4-yl]methyl]-5-methyl-indan-1-one]	4820	
COc1ccc2c(c1)CCC(CC1C=CN(Cc3ccccc3C)C=C1C(C)=O)C2=O (stereo not shown) [Compound 59, 2-[[3-acetyl-1-(o-tolylmethyl)-4H-pyridin-4-yl]methyl]-6-methoxy-tetralin-1-one]	8270	
COc1ccc2c(c1)CCC(CC1C=CN(Cc3cccc(F)c3)C=C1C(C)=O)C2=O (stereo not shown) [Compound 156, 2-[[3-acetyl-1-[(3-fluorophenyl)methyl]-4H-pyridin-4-yl]methyl]-6-methoxy-tetralin-1-one]	4400	
COc1ccc(C(=O)N(CCCC2C=CN(Cc3ccccc3)C=C2C(C)=O)c2ccccc2)cc1OC (stereo not shown) [Compound 36, N-[3-(3-acetyl-1-benzyl-4H-pyridin-4-yl)propyl]-3,4-dimethoxy-N-phenyl-benzamide]	4600	
COc1cc2c(cc1OC)C(=O)C(Cc1cc[n+](Cc3ccccc3)cc1C(C)=O)C2 (stereo not shown) [Compound 33, 1-Benzyl-3-actyl-4-(5,6-dimethoxy-1-oxo-2,3-dihydro-1H-inden-2-yl)methyl pyridinium bromide]		IC50 [1, 3]: 18 nM
COc1ccc2c(c1)CCC(CC1C=CN(Cc3ccc(F)cc3)C=C1C(C)=O)C2=O (stereo not shown) [Compound 155, 2-[[3-acetyl-1-[(4-fluorophenyl)methyl]-4H-pyridin-4-yl]methyl]-6-methoxy-tetralin-1-one]	2270	
